Assay results reported in US20100160228A1, “METHOD FOR INHIBITING OR STIMULATING ANGIOGENESIS IN AN INDIVIDUAL” (VALTION TEKNILLINEN TUTKIMUSKESKUS, priority 2007, published 2010).

How the values were obtained:
Format in all cases: cell-based, human
HUVEC [1] = assay: Transwell chemotaxis assay towards VEGF; details: vector-transfected HUVEC, FIG. 3D
Protocol: FIG. 3. TCPTP activity controls VEGF-dependent responses in endothelial cells. (A) HUVEC were transfected with the constitutively active TCPTP (TC37) or vector control (pCG), stimulated or not with VEGF, and stained for VEGFR2 (red) and nuclei (blue) after fixation and permeabilization. Arrows indicate VEGFR2 vesicles. (B) HUVEC were treated as in (A) and subjected to trypsin digestion on ice. VEGFR2 protected from trypsin (=internalized pool) was detected by immunoblotting. The intensities of VEGFR2 bands were quantified and are expressed relative to pCG-VEGF control. A representative experiment out of 2 with similar results is shown. (C) HUVEC were transfected with no oligo, siRNA against TCPTP or a control siRNA, and TCPTP expression was measured using immunoblotting. Cells were treated with 80 ng/ml VEGF and proliferation of sparse cells plated on gelatin was assayed after 16 h using BrdU-based assay (mean±SD; n=4-6; *, p<0.05). (D) HUVEC were transfected as in (A) and chemotaxis towards VEGF was measured using a Transwell assay for 4 hours. Cells adhering to the bottom of the filter were fixed and stained with crystal violet. Number of migrated cells was counted (mean±SEM, n=3).
(§1) FIG. 5. Controlled TCPTP activation inhibits VEGF-driven capillary formation, chemokinesis and chemotaxis. (A) HUVEC were cultured in fibrin gels and treated with or without VEGF and TAT peptides (200 nM). After 24 h the formation of capillary tubes was semiquantitatively scored. (B) HUVEC were plated on gelatin in the presence of the peptides (200 nM) or left untreated for 1 h. The cells were stimulated as indicated and migration of individual cells was tracked using time-lapse microscopy. Cumulative migration distance was plotted for randomly picked individual cells. (C) HUVEC were treated with 200 nM peptides and the transmigration assay was performed as in FIG. 3D. (D) HUVEC were transfected with siRNA against TCPTP or a control siRNA, and TCPTP expression was analysed with immunofluorescence. Equal exposures of TCPTP (green) and DAPI (blue) stainings are shown. 48 h post-transfection cells were subjected to transmigration assay as in […].
Chemotaxis assays. HUVEC electroporated with the DNA or siRNA or non-transfected HUVEC were treated with 200 nM α1TAT, ScrTAT or left untreated for 1 h. Transwell filters (8 μm pore size, Costar, Cambridge, Mass.) were coated with gelatin and medium (RPMI, 4 mM L-glutamine, 10% FBS) and VEGF (100 ng/ml) were added to the lower chamber. Cells were harvested from the culture plates, and transferred into the Transwell inserts (4×10^5 cells/well) in RPMI with 0.2% soybean trypsin inhibitor. […] The inserts were fixed in 4% paraformaldehyde, cells stained with 0.5% crystal violet and the number of migrated cells was counted using a microscope.

VEGFR2 = VEGFR2 kinase activity from HUVEC lysates (Kinase-Glo Plus); details: HUVEC treated with no peptide or with scrambled control TAT peptide, FIG. 4B
Protocol: (A) Serum-starved subconfluent HUVEC were treated for 1 h with α1 integrin cytoplasmic tail fusion peptide (α1TAT) or TAT-scramble control fusion peptide (ScrTAT) (both at 200 nM) followed by VEGF-induction (100 ng/ml, 15 min) where indicated. Cell lysates were resolved on SDS-PAGE and immunoblotted for phosphorylated VEGFR2 (or tubulin as a control). (B) HUVEC were treated as in (A) and VEGFR2 kinase activity (mean±SD, n=3) was measured from the cell lysates. **, p<0.01. (C) Recombinant, purified TCPTP was incubated with α1 or α2 cytoplasmic tail peptides (L-amino acids) or with α1 and scrambled TAT peptides (D-amino acids) and analyzed for phosphatase activity (mean±SD, n=3).
VEGFR2 kinase activity was studied using Kinase-Glo Plus kinase assay kit according to manufacturer's protocol (Promega) with 25 µM ATP. Briefly, HUVEC plated on gelatin were serum-starved overnight, treated with 400 nM α1TAT or ScrTAT or left untreated and stimulated with 100 ng/ml VEGF for 15 min, when indicated. The cells were lysed to ice-cold lysis buffer (1% NP-40, 20 mM Hepes pH 7.4, 150 mM NaCl, 10% glycerol, 2.5 mM EDTA, complete protease inhibitor (Roche) and phosphatase inhibitor coctails I and II (Sigma)). The lysates were incubated in anti-VEGFR2 or control IgG-coated wells with shaking for 2 h and washed 3 times with lysis buffer and 3 times with cold kinase assay buffer (20 mM Hepes pH 8, 0.1 mM Na3VO4, 10 mM MnCl2, 1 mM DTT). Kinase assay was performed for 10 min at +37° C.

HUVEC [2] = assay: Time-lapse chemokinesis assay; details: HUVEC on gelatin, 4 hours time-lapse, FIG. 5B and FIG. 9
Protocol: as §1
FIG. 9. TCPTP activation by α1-peptide inhibits VEGF induced chemokinesis. HUVEC were plated on gelatin in the presence of the peptides (200 nM) or left untreated for 1 h. The cells were stimulated as indicated and migration of individual cells was tracked using time-lapse microscopy. Representative images of individual cells overlayed with their migration patterns (different colours) at the indicated time points are shown.
Time-lapse chemokinesis assays. HUVEC were plated on gelatin-coated wells and allowed to attach for 1 h in the presence or absence of 200 nM α1TAT or ScrTAT and 20 ng/ml VEGF. Migration of individual cells was recorded at 5 min intervals for 4 h using 20× objective and digital video recording. The migration pathway of at least ten randomly picked cells was tracked using the Metamorph program. The cumulative migration distances were also plotted.

## VEGF
HUVEC [1]
  stimulation of chemotaxis: > 2 fold
VEGFR2
  increase of VEGFR2 kinase activity upon VEGF-stimulation: about 10 fold
HUVEC [2]
  induction of HUVEC chemokinesis: 99±25%
